Like-named read-outs stand apart in the source and are kept apart here.

Usually IC50 stands for the midpoint of a concentration-inhibition curve.

For one assay, the target named is T1, β-catenin/BCL9 PPI (Homo sapiens, UniProt P35222).
T1 construct: Full-length β-catenin (residues 1-781); host or cells: E. coli BL21 DE3
T1 sequence (P35222 1-781): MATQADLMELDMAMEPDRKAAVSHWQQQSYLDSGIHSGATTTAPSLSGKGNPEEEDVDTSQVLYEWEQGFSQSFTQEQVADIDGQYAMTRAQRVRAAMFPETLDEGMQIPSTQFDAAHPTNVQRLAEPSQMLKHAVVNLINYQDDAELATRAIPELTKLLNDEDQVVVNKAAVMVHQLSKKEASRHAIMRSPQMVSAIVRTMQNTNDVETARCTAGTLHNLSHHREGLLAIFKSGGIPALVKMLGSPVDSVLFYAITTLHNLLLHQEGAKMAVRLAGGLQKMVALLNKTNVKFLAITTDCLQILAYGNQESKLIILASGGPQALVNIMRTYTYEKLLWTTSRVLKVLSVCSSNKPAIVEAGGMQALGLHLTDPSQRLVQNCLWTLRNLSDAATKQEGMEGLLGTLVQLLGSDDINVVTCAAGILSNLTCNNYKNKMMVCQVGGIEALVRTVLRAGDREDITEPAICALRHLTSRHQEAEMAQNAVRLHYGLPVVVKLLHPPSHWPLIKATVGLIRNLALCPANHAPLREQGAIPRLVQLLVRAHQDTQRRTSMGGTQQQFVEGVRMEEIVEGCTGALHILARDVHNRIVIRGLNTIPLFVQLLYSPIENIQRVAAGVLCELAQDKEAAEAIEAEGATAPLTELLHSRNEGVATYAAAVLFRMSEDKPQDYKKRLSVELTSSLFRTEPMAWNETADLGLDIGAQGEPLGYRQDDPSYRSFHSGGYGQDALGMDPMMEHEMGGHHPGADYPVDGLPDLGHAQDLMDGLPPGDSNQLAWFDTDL
In words: AlphaScreen competitive inhibition assay of β-catenin/BCL9 PPI. Type of assay: binding. The settings on record: for AlphaScreen inhibitory activity in words: SAR comparison. Here is the method:
AlphaScreen Assays of β-Catenin and BCL9 Interaction. Experiments were performed in white opaque 384-well plates from PerkinElmer (Waltham, MA), and the samples were read on a Biotek Synergy 2 plate reader (Winooski, VT) with excitation at 680 nm and emission at 570 nm. The standard AlphaScreen protocol was used with a sensitivity setting of 200. All dilutions were made in 1x assay buffer containing 25 mM Hepes (pH 7.4), 100 mM NaCl, 0.01% Triton X-100 and 0.1% BSA to minimize nonspecific interactions.
For the β-catenin/BCL9 assay, 5 nM biotinylated BCL9, and 50 nM His6-tagged 8-catenin were incubated in assay buffer for 30 min. Different concentrations of the tested inhibitor were added and incubated in 20 μL assay buffer for another 1 h. All of the assay plates were covered and gently mixed on an orbital shaker. Donor and acceptor beads were then added to the plates to a final concentration of 10 μg/mL in 25 μL assay buffer. The mixture was incubated for 1 h before detection. The IC50 value was determined by nonlinear least-square analysis of GraphPad Prism 8.0. […] All of the experiments were performed in triplicate and carried out in the presence of 1% DMSO for small-molecule inhibitors. Each compound was assayed at least by three independent experiments. The results were expressed as mean±standard deviation.
A general note: In Alpha technology, singlet oxygen from a donor bead excites a nearby acceptor bead.

The test system of another assay is MDA-MB-468. Nature of the assay: MTS cell viability assay, MDA-MB-468. In kind it is cell-based. The note with it: Homo sapiens, 72 h, Wnt/β-catenin hyperactive, mean ± SD (n = 3). Here is the method:
(§1) MTS Cell Growth Inhibition Experiments. Colorectal cancer cells (SW480 and HCT116) and triple negative breast cancer cells (MDA-MB-231 and MDA-MB-468) were seeded in 96-well plates at 5×10^3 cells/well in DMEM with 10% FCS, maintained overnight at 37° C., and incubated with the tested compounds at various concentrations. Human mammary epithelial cell MCF10A were seeded in 96-well plates at 1×10^4 cells/well in MEGM (CC-3150, Lonza) with 100 ng/mL cholera toxin, maintained overnight at 37° C., and incubated with the tested compounds at various concentrations. Cell viability was monitored after 72 h using a freshly prepared mixture of 1 part phenazine methosulfate (PMS, Sigma) solution (0.92 mg/mL) and 19 parts 3-(4,5-dimethylthiazol-2-yl)-5-(3-carboxymethoxyphenyl)-2-(4-sulfophenyl)-2H-tetrazolium (MTS, Promega) solution (2 mg/mL). Cells were incubated in 10 μL of this solution at 37° C. for 3 h, and A490 was measured. […] Experiments were performed in triplicate.
In general terms: Formazan colour is commonly taken as a measure of viable cells.

In assay [1] the test system is Wnt/β-catenin hyperactive cancer cells. In words: MTS cell viability assays, cell panel. In kind it is cell-based. The note with it: Homo sapiens, MCF-10A; all tested cells incl. MCF10A; read-out: MTS IC50 on all tested cells. How it is done: as §1
The next assay has as its system MCF10A. Nature of the assay: MTS cell viability assay, MCF10A. The settings on record: for IC50: Homo sapiens, MCF-10A, 72 h, Wnt/β-catenin normal, mean ± SD (n = 3). In kind it is cell-based, human. Here is the method: as §1
The next assay relates to SW480. In words: MTS cell viability assay, SW480. The settings on record: Homo sapiens, 72 h, Wnt/β-catenin hyperactive, mean ± SD (n = 3). Type of assay: cell-based. How it is done:
as §1

The next assay has as its system HCT116. In words: MTS cell viability assay, HCT116. Type of assay: cell-based. The settings on record: Homo sapiens, HCT-116; 72 h, Wnt/β-catenin hyperactive, mean ± SD (n = 3). Here is the method:
as §1

In another assay the test system is MDA-MB-231. Nature of the assay: MTS cell viability assay, MDA-MB-231. The note with it: Homo sapiens, 72 h, Wnt/β-catenin hyperactive, mean ± SD (n = 3). Type of assay: cell-based. Here is the method:
as §1

For assay [2], the system named is Wnt/β-catenin signaling (TOPFlash luciferase reporter). In words: TOPFlash luciferase reporter assay in SW480 cells. In kind it is cell-based. The settings on record: Homo sapiens, 24 h. Here is the method:
The suppressing effect of the inhibitors on transactivation of Wnt/β-catenin signaling was evaluated by the TOPFlash/FOPFlash luciferase reporter assay. In the TOPFlash assay, the luciferase reporter has three wild-type Tcf4 binding sites, while in the FOPFlash assay Tcf4 binding sites were mutated. These tandem Tcf binding sites controls the expression ratio of the firefly luciferase in TOPFlash/FOPFlash assays. The renilla luciferase reporter construct (pCMV-RL) was used as the internal control to normalize luciferase reporter signals and eliminate any possible systematic errors. […] This selectivity trend is consistent with that from MTS cell viability assays. Therefore, further cell-based studies were focused on compound 30.
Cell Transfection and Luciferase Assay. FuGENE6 (E269A, Promega) 96 well plate format was used for the transfection of SW480 cells according to the manufacturer's instruction. SW480 cells were co-transfected with 60 ng the TOPFlash or FOPFlash firefly luciferase reporter gene and 40 ng renilla luciferase pCMV-RL normalization reporter gene. Cells were cultured in DMEM and 10% FBS at 37° C. for 24 h, and different concentrations of inhibitors or DMSO was added. After 24 h, the luciferase reporter activity was measured using the Dual-Glo system (E2940, Promega). […]
(In general: Reporter assays use an easily measured gene product as a stand-in for the process of interest.)

Consider `CC(C)(C)OC(=O)C(C)(C)Oc1cccc(N2CCCC(C(=O)N(Cc3ccc(-c4cccs4)cc3)C3CC3)C2)c1` (centres unmarked) [Compound 17, tert-Butyl 2-(3-(3-(cyclopropyl(4-(thiophen-2-yl)benzyl)carbamoyl)piperidin-1-yl)phenoxy)-2-methylpropanoate], for which the Ki on β-catenin/BCL9 PPI (AlphaScreen competitive inhibition assay, read-out: Ki for disruption of the β-catenin/BCL9 PPI) is more than 90 µM; at β-catenin/BCL9 PPI (Table 1, AlphaScreen, inhibitors 16-26, Ki derived from IC50, read-out: Ki), more than 90 µM. Further, the “AlphaScreen inhibitory activity in words” value at β-catenin/BCL9 PPI is “significant potency loss”. In addition, the IC50 on β-catenin/BCL9 PPI (Table 1, AlphaScreen, inhibitors 16-26) is more than 100 µM; with MDA-MB-468, more than 200 µM; in assay [1], more than 200 µM; in the assay on MCF10A, more than 200 µM; with SW480 it was more than 200 µM; in the assay with HCT116, more than 200 µM. In the assay with MDA-MB-231, this compound returned an IC50 of more than 200 µM.

Regarding `COc1cccc(S(=O)(=O)NC(=O)C(C)(C)Oc2cccc(N3CCC[C@H](C(=O)N(Cc4ccc(-c5cccs5)cc4)C4CC4)C3)c2)c1` [Compound 28, (S)—N-Cyclopropyl-1-(3-((1-((3-methoxyphenyl)sulfonamido)-2-methyl-1-oxopropan-2-yl)oxy)phenyl)-N-(4-(thiophen-2-yl)benzyl) piperidine-3-carboxamide], on β-catenin/BCL9 PPI, the “AlphaScreen inhibitory activity in words” value is “slightly superior to R-isomer”. Also, the half-maximal inhibitory concentration (IC50) on β-catenin/BCL9 PPI (Table 2, AlphaScreen, inhibitors 27-30 (R- and S-isomers), preliminary) is not above 5 µM; with MDA-MB-468 it was 15.4 ± 2.49 µM; in assay [2], 7.8 µM; with MCF10A, 30.4 ± 2.47 µM; in the assay with SW480 it was 28.2 ± 1.08 µM; in the assay with HCT116, 29.9 ± 1.99 µM. Also, the concentration for half-maximal inhibition (IC50) with MDA-MB-231 was found to be 19.8 ± 1.59 µM. Moreover, the Ki on β-catenin/BCL9 PPI (Table 2, AlphaScreen, inhibitors 27-30 (R- and S-isomers), preliminary, read-out: Ki) was not above 5 µM. The “selectivity for hyperactive cancer cells over normal MCF10A cells” value in the assay with MCF10A (MTS IC50 MCF10A versus cancer cells) is recorded as “much less selective over MCF10A cells”.

The values are drawn from US20250019371A1, “SMALL-MOLECULAR INHIBITORS FOR THE BETA-CATENIN/ B-CELL LYMPHOMA 9 PROTEIN-PROTEIN INTERACTION” (H. LEE MOFFITT CANCER CENTER AND RESEARCH INSTITUTE, INC., priority 2021, published 2025).
